The text below walks through data of patent US10729700B2, “Methods and compositions of bile acids and salts for reduction of fat” (priority 2014, dated 2020).

One series relates to mice skin. The experiment in a line: In vivo monitoring of adverse events on the skin. The conditions noted are these: for skin lesions on the injected area: subcutaneous, pH 7.4, 0.5-1.5%.
A short description of series [1]: Stability of bile salts in aqueous solution. The conditions noted are these: for pH in which aqueous solution remained stable: 1% (w/v), 10 mM phosphate buffer, 25° C.; for Solution stability of bile salt: 1% in 10 mM phosphate buffer; for pH stability: summary, Table 4.
Procedure: 0.01 g of bile salts (UDCA, DCA, CDCA and CA) were dissolved in 1 ml of phosphate buffer and placed at room temperature for 10 days.
A further series relates to tails of female ICR mice. Put plainly: In vivo monitoring of tissue specific effects of bile salts (tail injection). The conditions noted are these: pH 7.4 solution; for skin layers of tails / fat layers of tails: 14 days post-injection; for fat layers of tails: compared to saline.
Series [2] relates to Inguinal fat (subcutaneous fat) pads. Put plainly: Ex vivo fat lysis assay (MTT). The conditions noted are these: for ED50 (% w/v); EC50 values of bile salts required to lysis of fat tissues ex vivo: fat tissues of high fat diet mice, 10 minutes, MTT; for effect of increased pH of solution on fat lysis activities: pH 6.0 ˜pH 9.0, bile salt at EC50 in pH 7.4; for fat lysis activities above the pH 9: solutions above the pH 9. It counts as cell-based, diet induced obese mice.
Procedure: Inguinal fat (subcutaneous fat) pads were excised from diet induced obese mice and chopped to about the same size. 100 mg tissue samples were transferred to 48 well plates and incubated with 350 μl of various concentrations and pH of DCA, CDCA, CA, and phosphate buffer for 10 minutes. 70 μl of MTT solution (5 mg/ml in PBS) was added into each well and incubated for overnight at 37° C. The solution was removed and precipitated formazan product was dissolved in 300 μl of DMSO. Tissue viability was monitored by measuring the optical density at 570 nm (OD570) using a microplate reader.

A further series has as its system rat paws. The experiment in a line: Bile salt-induced paw edema. The conditions noted are these: 4 hours after injection; for severity of edema (paw thickness): concentrations and pHs showing similar tissue lysis effects.
In series [3] the test system is inguinal fat pad of obese mouse. The experiment in a line: In vivo monitoring of bile salts induced fat loss. As to conditions: 1% solutions, 5 times during 2 weeks.
A further series relates to 3T3-L1 adipocytes. The experiment in a line: Cell lysis effect by detergent in vitro (MTT assay). It counts as cell-based. As to conditions: for EC50 (concentration that kills 50% of the cells) / ED50 (% w/v); EC50 values of bile salts required to lysis of adipose cells in vitro: differentiated 3T3-L1 adipocytes; for ED50 (% w/v); EC50 values of bile salts required to lysis of adipose cells in vitro: 1 hour, MTT. In general terms: Formazan colour is commonly taken as a measure of viable cells.

For series [4], the system named is inguinal fat pads of obese mice. Put plainly: Quantitation of in vivo necrotic area (TTC staining) and histology of injected fat pads.
Procedure: Various concentrations of bile salts (DCA, CDCA, and CA) solutions in 100 μl volume of PBS were injected to the inguinal fat pads of obese mice. Mice were sacrificed at 1 day after the injection. Mouse inguinal fat pads were stained with 2% TTC (Sigma-Aldrich Chemical, St. Louis, Mo., USA) in PBS for 2 hour to identify the non-necrotic and necrotic areas and subsequently immersed in 10% formalin to enhance the contrast. […] The appearance and area of necrotic fat regions were captured and imaged by scanner. The necrotic area of fat pad treated DCA, CDCA, CA, and PBS was calculated by Image J.

Procedure for 3T3-L1 adipocytes: To induce adipocyte differentiation, 3T3-L1 pre-adipocytes were seeded in 96-well plate (5×10^3 cells/well) and grown until 2 days post-confluence (day 0) and then treated for 2 days with growth media plus MDI (0.5 μM methylisobutylxanthine, 1 μM dexamethasone and 10 ug/ml insulin; all from Sigma-Aldrich Chemical, St. Louis, Mo., USA), followed by 2 days of treatment with the media containing 10 ug/ml insulin alone. Medium was replaced every 2 days for the following 8 days. Differentiated adipocytes in 96 well plate were washed twice with PBS and incubated in various concentrations of bile salts in serum free DMEM. After 1 hour incubation at 37° C., media were changed and 20 μl of MTT solution (5 mg MTT/ml in PBS) was added into each well and incubated for 1 hour at 37° C. The resultant formazan product was dissolved in 100 μl of DMSO/well and cell viability was determined by measuring the optical density at 570 nm (OD570) using a microplate reader.
Procedure for mice skin: Injections were repeated 1 more times 3 days after first injection. […] The severity of skin lesion was assessed using the following criteria. The total skin severity score was defined as the sum of the individual scores for each of the following character and length of lesion. Length of lesion is determined by measuring the longest diameter of the largest lesion identified. Measured length should involve the lesion only and not cross over clinically normal skin. The length of lesion involvement within each injected site was scored from 0 to 3, where 0=no involvement; 1=<0.2 cm, 2=0.2˜0.5 cm, 3=>0.5 cm of the length of site affected. The character of lesion was scored from 0 to 3, where 0=no lesion present, 1=excoriation only one or one, small punctate crust (<2 mm), 2=multiple, small punctate crusts or coalescing crust (>2 mm), 3=erosion or ulceration.
Procedure for rat paws: Male SD rats (6 weeks old) were purchased from Koatech Co. (Seoul, Korea) and used after 1 week of acclimation. Rats (200˜230 g) were randomly selected and the volume of intact rats paw was measured in all groups using a digital caliper (Bluebird, Seoul, Korea). […] To induce the edema, rats received 100 μl of various bile salts and PBS into the plantar region of the hind foot of rats. Measurements of the paw volume were performed by a caliper immediately before the bile salts injection and 4 hours after injection.

On to `C[C@H](CCC(=O)O)[C@H]1CC[C@H]2[C@@H]3[C@H](O)C[C@@H]4C[C@H](O)CC[C@]4(C)[C@H]3C[C@H](O)[C@]12C` [CA, cholate], for which the skin lesions entry with mice skin (higher dose (1.5%)) is listed as “Only small punctate lesions”. The skin damage score entry with mice skin (highest dose of CA (1.5%) compared to lowest dose of DCA (0.5%)) is given as “lower damage score”. Besides, the skin lesions entry in the series on mice skin (lower doses) is on record as “no detectable lesions”. In addition, in the series on mice skin, the “skin lesions on the injected area” value is on record as “significantly less lesions”. In series [1], the “pH in which aqueous solution remained stable” value was under 7.0 and the pH stability is under 7.0. Besides, in series [1] (pH 6.5, 25° C.), the “Solution stability of bile salt” value is reported as “Precipitation”. Further, in series [1] (pH 6.7, 25° C.), the “Solution stability of bile salt” value is on record as “Precipitation”. In addition, the “Solution stability of bile salt” value in series [1] (pH 7.0, 25° C.) is listed as “Stable”. Besides, the “Solution stability of bile salt” value in series [1] (pH 7.2, 25° C.) is on record as “Stable”. Besides, the “Solution stability of bile salt” value in series [1] (pH 7.4, 25° C.) is reported as “Stable”. Also, the “Solution stability of bile salt” value in series [1] (pH 7.6, 25° C.) is recorded as “Stable”. The “Solution stability of bile salt” value in series [1] (pH 7.8, 25° C.) is on record as “Stable”. The “Solution stability of bile salt” value in series [1] (pH 8.0, 25° C.) is given as “Stable”. The “Solution stability of bile salt” value in series [1] (pH 8.3, 25° C.) is “Stable”. Moreover, in the series on tails of female ICR mice, the “skin layers of tails” value is recorded as “not severely damaged” and the “fat layers of tails” value is listed as “disrupted”. In series [2], the “EC50 concentrations, ex vivo condition” value turned out to be 0.0727%; the “ED50 (% w/v); EC50 values of bile salts required to lysis of fat tissues ex vivo” value (“ED50 (% w/v) … of fat tissues ex vivo” for short) came out at 0.0727 % w/v; the “effect of increased pH of solution on fat lysis activities” value (“effect of increased pH of solution” below) was “greatly diminishes the fat lysis activities”; the “fat lysis activities above the pH 9” value is given as “mostly lost their fat lysis activities”. Further, the “EC50 fold higher than DCA or CDCA, ex vivo” value in series [2] (relative to DCA or CDCA) is reported as 4 fold. For the same compound, in the series on rat paws, the “increment of foot thickness relative to the case of DCA” value is “less than one-half” and the “severity of edema (paw thickness)” value was “very mild”. Also, in series [3], the “histology of injected area (H & E)” value is on record as “Fibrotic areas” and the “lesions in the administered area of fat tissues” value (from here on “lesions in the administered area”) is listed as “yellowish lesions”. Further, in the series on 3T3-L1 adipocytes, the “EC50 (concentration that kills 50% of the cells)” value came to 0.42% and the “ED50 (% w/v); EC50 values of bile salts required to lysis of adipose cells in vitro” value (shortened to “ED50 (% w/v); EC50 values … in vitro”) amounted to 0.42 % w/v. Also, the “viability of adipocyte cells” value with 3T3-L1 adipocytes (up to 2% concentration) was “showed cell killing”. Further, in series [4] (mouse, in vivo), the “concentration enough to show similar necrotic effects with DCA and CDCA” value is “about two fold higher concentration”; the “concentration enough to show similar tissue lysis effect with 1% DCA (pH 8.3)” value turned out to be 1.5%; the “necrotic areas at the same concentration” value is given as “smaller than DCA or CDCA”. Also, in series [4] (mouse, in vivo, pH 7.4), the “concentration showing similar tissue lysis activity with the injection of 1% DCA” value is given as “about 2%”.

Take `C[C@H](CCC(=O)O)[C@H]1CC[C@H]2[C@@H]3[C@H](O)C[C@@H]4C[C@H](O)CC[C@]4(C)[C@H]3CC[C@]12C` [CDCA, chenodeoxycholate]: the “Solution stability of bile salt” value in series [1] (pH 6.5, 25° C.) is given as “Gelaton”; in series [1] (pH 6.7, 25° C.), “Gelation”; in series [1] (pH 7.0, 25° C.), “Gelation”; in series [1] (pH 7.2, 25° C.) it was “Precipitation”; in series [1] (pH 7.4, 25° C.), “Stable”; in series [1] (pH 7.6, 25° C.) it was “Stable”. Also, the “Solution stability of bile salt” value is recorded as “Stable” in series [1] (pH 7.8, 25° C.); “Stable” in series [1] (pH 8.0, 25° C.); “Stable” in series [1] (pH 8.3, 25° C.). For the same compound, the pH stability in series [1] was under 7.4. Besides, the “EC50 concentrations, ex vivo condition” value in series [2] is recorded as 0.0180%. The “ED50 (% w/v) … of fat tissues ex vivo” value in series [2] amounted to 0.018 % w/v. The “effect of increased pH of solution” value in series [2] is reported as “greatly diminishes the fat lysis activities”. The “fat lysis activities above the pH 9” value in series [2] is listed as “mostly lost their fat lysis activities”. Also, in the series on rat paws, the “severity of edema (paw thickness)” value is recorded as “slightly lower symptom”. Moreover, the “histology of injected area (H & E)” value in series [3] is recorded as “Fibrotic areas”. For the same compound, the “lesions in the administered area” value in series [3] was “yellowish lesions”. Further, the “EC50 (concentration that kills 50% of the cells)” value in the series with 3T3-L1 adipocytes is recorded as 0.060%. Also, the “ED50 (% w/v); EC50 values … in vitro” value with 3T3-L1 adipocytes is on record as 0.0597 % w/v. Further, in the series with 3T3-L1 adipocytes (low concentration (below 0.1%)), the “viability of adipocyte cells” value was “reduced the viability of adipocyte cells”. In addition, the “concentration enough to show similar tissue lysis effect with 1% DCA (pH 8.3)” value in series [4] (CA at pH 7.0, CDCA at pH 7.4) is 0.6%. Moreover, the “concentration showing similar tissue lysis activity with the injection of 1% DCA” value in series [4] (same pH (pH 7.4)) turned out to be 1%.

`C[C@H](CCC(=O)NCCS(=O)(=O)O)[C@H]1CC[C@H]2[C@@H]3[C@@H](O)C[C@@H]4C[C@H](O)CC[C@]4(C)[C@H]3CC[C@]12C` [TUDCA, taurourosodeoxycholate]: the “viability of adipocyte cells” value in the series with 3T3-L1 adipocytes (up to 2% concentration) was “did not reduce the viability of adipocyte cells”.

With `C[C@H](CCC(=O)O)[C@H]1CC[C@H]2[C@@H]3[C@@H](O)C[C@@H]4C[C@H](O)CC[C@]4(C)[C@H]3CC[C@]12C` [UDCA, ursodeoxycholate], in series [1], the “pH in which aqueous solution remained stable” value is under 7.8. The “Solution stability of bile salt” value in series [1] (pH 6.5, 25° C.) was “Precipitation”; in series [1] (pH 6.7, 25° C.), “Precipitation”; in series [1] (pH 7.0, 25° C.), “Precipitation”; in series [1] (pH 7.2, 25° C.), “Precipitation”; in series [1] (pH 7.4, 25° C.), “Precipitation”; in series [1] (pH 7.6, 25° C.), “Precipitation”. The “Solution stability of bile salt” value in series [1] (pH 7.8, 25° C.) was “Stable”; in series [1] (pH 8.0, 25° C.) it was “Stable”; in series [1] (pH 8.3, 25° C.), “Stable”. Besides, the pH stability in series [1] was under 7.8. For the same compound, the “severity of edema (paw thickness)” value in the series on rat paws is given as “slightly lower symptom”. For the same compound, in the series on 3T3-L1 adipocytes, the “EC50 (concentration that kills 50% of the cells)” value came to 0.25%. The “ED50 (% w/v); EC50 values … in vitro” value with 3T3-L1 adipocytes turned out to be 0.328 % w/v. Moreover, the “histological changes in fat pads (H & E)” value in series [4] (1.5% solution) is “Infiltration of polymorphonuclear (PMN) cells into the fat pad tissue was observed”. The “tissue lysis effect with higher concentration” value in series [4] (necrotic area, FIGS. 12B and 12C) is listed as “did not increased proportionally”. Also, the “inflammation after injection to subcutaneous fat” value in series [4] (one time injection) was “severe inflammation”.

Turning to deoxycholate [DCA], the skin lesions entry with mice skin (higher concentrations) is “Large lesions, erosions and ulcers”; in the series with mice skin (lowest dose (0.5%)), “small punctate lesions”. The “skin lesions on the injected area” value in the series on mice skin is “severe skin lesions”. Besides, in series [1], the “pH in which aqueous solution remained stable” value is “lower than 8.3”. Moreover, the “Solution stability of bile salt” value in series [1] (pH 6.5, 25° C.) is given as “Gelation”; in series [1] (pH 6.7, 25° C.), “Gelation”; in series [1] (pH 7.0, 25° C.), “Gelation”; in series [1] (pH 7.2, 25° C.), “Gelation”; in series [1] (pH 7.4, 25° C.), “Gelation”; in series [1] (pH 7.6, 25° C.), “Gelation”. In addition, the “Solution stability of bile salt” value is given as “Gelation” in series [1] (pH 7.8, 25° C.); “Gelation” in series [1] (pH 8.0, 25° C.); “Stable” in series [1] (pH 8.3, 25° C.). The pH stability in series [1] is reported as under 8.3. Further, in the series on tails of female ICR mice, the “skin layers of tails” value is reported as “not severely damaged”. Moreover, the “fat layers of tails” value in the series with tails of female ICR mice is reported as “disrupted”. Further, the “damages of muscles in tails” value in the series on tails of female ICR mice (same concentration of DCA and CA) is “prominent”. For the same compound, the “EC50 concentrations, ex vivo condition” value in series [2] stood at 0.0179%. In series [2], the “ED50 (% w/v) … of fat tissues ex vivo” value was 0.0179 % w/v. Moreover, the “effect of increased pH of solution” value in series [2] was “do not show greatly decreased fat lysis activity”. Also, the “severity of edema (paw thickness)” value in the series with rat paws is on record as “most severe edema phenotype”. Moreover, the “histology of injected area (H & E)” value in series [3] is given as “Fibrotic areas”. Moreover, the “lesions in the administered area” value in series [3] was “yellowish lesions”. In the series on 3T3-L1 adipocytes, the “EC50 (concentration that kills 50% of the cells)” value came out at 0.051%. In addition, the “ED50 (% w/v); EC50 values … in vitro” value with 3T3-L1 adipocytes stood at 0.0509 % w/v. The “viability of adipocyte cells” value in the series with 3T3-L1 adipocytes (low concentration (below 0.1%)) is reported as “reduced the viability of adipocyte cells”. For the same compound, in series [4] (necrotic area after injection), the “tissue lysis activity at pH 8.3 compared with pH 7.4” value was “lower than the activity of DCA preparation in condition of pH 7.4”.
